Assay results reported in patent publication US20240376163A1, “PEPTIDE FOR INHIBITING CALCINEURIN AND USE THEREOF” (Seoul National University R&DB Foundation, priority 2023, published 2024).

Test system: Jurkat T cells
Assay: mRNA sequencing of activated Jurkat T cells
Type: cell-based, human
Settings: Jurkat T cells, P + I

C=CC[C@@H]1/C=C(\C)C[C@H](C)C[C@H](OC)[C@H]2O[C@@](O)(C(=O)C(=O)N3CCCC[C@H]3C(=O)O[C@H](/C(C)=C/[C@@H]3CC[C@@H](O)[C@H](OC)C3)[C@H](C)[C@@H](O)CC1=O)[C@H](C)C[C@@H]2OC [FK506, Tacrolimus, reference compound]
ABTB2 FPKM: 2.549 FPKM | ACAP1 FPKM: 35.261 FPKM | ACSF3 FPKM: 22.755 FPKM | ADA FPKM: 74.531 FPKM | ADAMTS17 FPKM: 0.843 FPKM | ADCYAP1 FPKM: 3.646 FPKM | ADORA2A FPKM: 0.998 FPKM | AFF2 FPKM: 4.374 FPKM | AGK FPKM: 14.029 FPKM | ALDH1A2 FPKM: 7.041 FPKM | ALOX5AP FPKM: 92.971 FPKM | ANKEF1 FPKM: 3.081 FPKM | ANO8 FPKM: 3.26 FPKM | ANTXR2 FPKM: 53.159 FPKM | APH1B FPKM: 5.12 FPKM | APOBEC3B-AS1 FPKM: 13.251 FPKM | APOBEC3F FPKM: 5.861 FPKM | APOBEC3G FPKM: 8.803 FPKM | APOL1 FPKM: 4.036 FPKM | ARHGAP4 FPKM: 15.97 FPKM | ARHGAP25 FPKM: 3.447 FPKM | ARHGAP31 FPKM: 10.889 FPKM | ARHGEF3 FPKM: 8.637 FPKM | ARPP21 FPKM: 1.29 FPKM | ASB13 FPKM: 2.277 FPKM | ASNS FPKM: 20.436 FPKM | ATHL1 FPKM: 4.597 FPKM | ATP2A3 FPKM: 47.81 FPKM | ATP6V0A4 FPKM: 21.385 FPKM | ATP6V1B2 FPKM: 50.672 FPKM | ATPAF1 FPKM: 11.764 FPKM | AVPR2 FPKM: 1.21 FPKM | B2M FPKM: 1155.981 FPKM | BAHCC1 FPKM: 1 FPKM | BCL2A1 FPKM: 21.118 FPKM | BCL2L1 FPKM: 39.402 FPKM | BCL3 FPKM: 14.57 FPKM | BCL6 FPKM: 15.181 FPKM | BCL7A FPKM: 12.185 FPKM | BCL11B FPKM: 3.688 FPKM | BEND6 FPKM: 1.416 FPKM | BIN1 FPKM: 2.374 FPKM | BIRC3 FPKM: 30.767 FPKM | C10orf55 FPKM: 7.632 FPKM | C11orf74 FPKM: 0.365 FPKM | C21orf58 FPKM: 5.847 FPKM | CABP1 FPKM: 1.201 FPKM | CAMK2D FPKM: 5.855 FPKM | CARHSP1 FPKM: 20.082 FPKM | CBFA2T3 FPKM: 12.236 FPKM | CBLB FPKM: 8.881 FPKM | CBS FPKM: 3.935 FPKM | CBX2 FPKM: 2.786 FPKM | CCDC15 FPKM: 3.535 FPKM | CCL3 FPKM: 0 FPKM | CCL3L3 FPKM: 0 FPKM | CCL20 FPKM: 0 FPKM | CCND3 FPKM: 30.402 FPKM | CCNE2 FPKM: 6.298 FPKM | CD1B FPKM: 4.115 FPKM | CD1E FPKM: 4.975 FPKM | CD70 FPKM: 3.005 FPKM | CD82 FPKM: 171.933 FPKM | CD97 FPKM: 19.394 FPKM | CD200 FPKM: 0 FPKM | CD274 FPKM: 7.13 FPKM | CDKN1A FPKM: 39.264 FPKM | CDKN2D FPKM: 17.642 FPKM | CECR1 FPKM: 5.304 FPKM | CENPM FPKM: 13.201 FPKM | CEP70 FPKM: 14.887 FPKM | CERKL FPKM: 13.458 FPKM | CFLAR FPKM: 3.438 FPKM | CHEK2 FPKM: 8.907 FPKM | CHPF2 FPKM: 36.42 FPKM | CHPF FPKM: 9.759 FPKM | CHRNA3 FPKM: 4.293 FPKM | CHST12 FPKM: 13.527 FPKM | CNN2 FPKM: 30.77 FPKM | COL27A1 FPKM: 4.463 FPKM | CPD FPKM: 23.208 FPKM | CREB3L2 FPKM: 5.62 FPKM | CREB5 FPKM: 0.577 FPKM | CSF1 FPKM: 1.706 FPKM | CSF2 FPKM: 0 FPKM | CXCL8 FPKM: 0.937 FPKM | CXCL11 FPKM: 0.695 FPKM | CXCR4 FPKM: 38.979 FPKM | CYTH1 FPKM: 33.17 FPKM | DBP FPKM: 2.396 FPKM | DCBLD2 FPKM: 13.786 FPKM | DENND5A FPKM: 24.792 FPKM | DNAJB5 FPKM: 19.238 FPKM | DSTYK FPKM: 3.501 FPKM | DTL FPKM: 5.862 FPKM | DTX1 FPKM: 4.414 FPKM | DUSP6 FPKM: 9.728 FPKM | DUSP10 FPKM: 11.981 FPKM | E2F7 FPKM: 4.531 FPKM | ECE1 FPKM: 20.046 FPKM | EFHD2 FPKM: 180.233 FPKM | EGR1 FPKM: 218.444 FPKM | EGR2 FPKM: 11.435 FPKM | EHBP1L1 FPKM: 7.073 FPKM | EMP1 FPKM: 4.613 FPKM | ETS1 FPKM: 50.032 FPKM | FADS2 FPKM: 67.903 FPKM | FAM64A FPKM: 7.456 FPKM | FAT1 FPKM: 13.036 FPKM | FBLN2 FPKM: 3.348 FPKM | FKBP5 FPKM: 8.687 FPKM | FLI1 FPKM: 13.241 FPKM | FOSL1 FPKM: 10.499 FPKM | FOSL2 FPKM: 2.204 FPKM | FXYD5 FPKM: 41.346 FPKM | FYN FPKM: 16.523 FPKM | GAD1 FPKM: 2.246 FPKM | GFOD1 FPKM: 4.187 FPKM | GFRA1 FPKM: 0.991 FPKM | GKAP1 FPKM: 2.692 FPKM | GLRB FPKM: 1.62 FPKM | GLRX FPKM: 25.315 FPKM | GNG4 FPKM: 5.365 FPKM | GPC2 FPKM: 5.785 FPKM | GPR17 FPKM: 0.258 FPKM | GPR68 FPKM: 8.916 FPKM | GSE1 FPKM: 17.37 FPKM | GTDC1 FPKM: 4.629 FPKM | GXYLT2 FPKM: 5.443 FPKM | GZMB FPKM: 513.528 FPKM | HCAR1 FPKM: 7.167 FPKM | HIVEP3 FPKM: 20.041 FPKM | HLA-A FPKM: 181.069 FPKM | HLA-B FPKM: 116.079 FPKM | HPGD FPKM: 6.064 FPKM | IFIT3 FPKM: 6.495 FPKM | IKZF2 FPKM: 8.561 FPKM | IL2 FPKM: 0.287 FPKM | IL4R FPKM: 9.842 FPKM | IL10RA FPKM: 2.828 FPKM | IL15 FPKM: 2.654 FPKM | IL15RA FPKM: 5.979 FPKM | IL21R FPKM: 2.244 FPKM | IL21R-AS1 FPKM: 1.927 FPKM | IL27RA FPKM: 10.817 FPKM | IQCJ-SCHIP1 FPKM: 1.657 FPKM | IQGAP2 FPKM: 4.857 FPKM | IRF1 FPKM: 141.607 FPKM | IRF2 FPKM: 34.99 FPKM | IRF4 FPKM: 0.423 FPKM | IRF7 FPKM: 21.167 FPKM | ITGA4 FPKM: 39.099 FPKM | ITGAL FPKM: 10.212 FPKM | ITK FPKM: 58.558 FPKM | JAK2 FPKM: 5.248 FPKM | KCNK1 FPKM: 10.967 FPKM | KIAA0101 FPKM: 21.727 FPKM | KIAA0247 FPKM: 8.032 FPKM | KIR3DX1 FPKM: 3.048 FPKM | KLF10 FPKM: 25.627 FPKM | KLF12 FPKM: 6.506 FPKM | KREMEN1 FPKM: 3.122 FPKM | LAIR1 FPKM: 8.298 FPKM | LDLRAD4 FPKM: 6.21 FPKM | LEF1-AS1 FPKM: 3.747 FPKM | LEF1 FPKM: 74.102 FPKM | LGMN FPKM: 1.42 FPKM | LIF FPKM: 0.143 FPKM | LIMS2 FPKM: 4.122 FPKM | LINC00659 FPKM: 10.239 FPKM | LINC01260 FPKM: 7.672 FPKM | LMNA FPKM: 4.62 FPKM | LMO1 FPKM: 1.094 FPKM | LOC653712 FPKM: 4.163 FPKM | LOC100506688 FPKM: 1.625 FPKM | LOC101926963 FPKM: 4.541 FPKM | LOC101927497 FPKM: 9.413 FPKM | LPAR6 FPKM: 8.449 FPKM | LRRC8C FPKM: 10.058 FPKM | LRRC20 FPKM: 3.843 FPKM | LTBP4 FPKM: 8.427 FPKM | LUCATI FPKM: 12.516 FPKM | MAFF FPKM: 16.977 FPKM | MAGEA4 FPKM: 3.908 FPKM | MAL FPKM: 2.664 FPKM | MAMLD1 FPKM: 5.995 FPKM | MAP3K7CL FPKM: 2.247 FPKM | MAST4 FPKM: 3.498 FPKM | MAZ FPKM: 112.102 FPKM | MCM2 FPKM: 22.07 FPKM | MCTP2 FPKM: 5.326 FPKM | METRN FPKM: 1.779 FPKM | MFAP4 FPKM: 0.663 FPKM | MGAT4A FPKM: 8.906 FPKM | MICAL2 FPKM: 1.763 FPKM | MIR22HG FPKM: 9.248 FPKM | MIR3652 FPKM: 547.182 FPKM | MIR6775 FPKM: 19.643 FPKM | MIR6821 FPKM: 13.626 FPKM
